{"source": "patent US6476012B2", "about": "“Estradiol-16α-carboxylic acid esters as locally active estrogens” (Yale University, priority 2001, dated 2002)", "origin": "cited, not measured here", "key": {"ERβ": {"biological_target": "ERβ (Homo sapiens, UniProt Q92731)", "sequence (Q92731 whole entry, species assumed)": "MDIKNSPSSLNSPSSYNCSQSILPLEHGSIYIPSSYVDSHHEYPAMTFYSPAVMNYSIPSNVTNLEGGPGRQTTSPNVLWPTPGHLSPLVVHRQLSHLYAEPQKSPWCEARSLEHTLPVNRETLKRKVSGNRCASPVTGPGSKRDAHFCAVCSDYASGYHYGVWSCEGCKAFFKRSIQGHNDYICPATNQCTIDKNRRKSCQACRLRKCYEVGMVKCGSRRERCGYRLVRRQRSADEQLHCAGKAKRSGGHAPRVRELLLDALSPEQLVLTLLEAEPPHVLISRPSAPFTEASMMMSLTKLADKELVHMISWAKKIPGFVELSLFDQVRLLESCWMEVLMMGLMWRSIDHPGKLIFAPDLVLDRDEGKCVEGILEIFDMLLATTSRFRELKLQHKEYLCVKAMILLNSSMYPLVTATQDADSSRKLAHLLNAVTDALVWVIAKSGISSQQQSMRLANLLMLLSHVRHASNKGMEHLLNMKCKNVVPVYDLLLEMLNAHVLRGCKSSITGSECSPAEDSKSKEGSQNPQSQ", "details": "previously reported; cited from earlier work"}, "classical ER, ERα": {"biological_target": "T1, classical ER, ERα (Homo sapiens, UniProt P03372)", "T1 sequence (P03372 1-595)": "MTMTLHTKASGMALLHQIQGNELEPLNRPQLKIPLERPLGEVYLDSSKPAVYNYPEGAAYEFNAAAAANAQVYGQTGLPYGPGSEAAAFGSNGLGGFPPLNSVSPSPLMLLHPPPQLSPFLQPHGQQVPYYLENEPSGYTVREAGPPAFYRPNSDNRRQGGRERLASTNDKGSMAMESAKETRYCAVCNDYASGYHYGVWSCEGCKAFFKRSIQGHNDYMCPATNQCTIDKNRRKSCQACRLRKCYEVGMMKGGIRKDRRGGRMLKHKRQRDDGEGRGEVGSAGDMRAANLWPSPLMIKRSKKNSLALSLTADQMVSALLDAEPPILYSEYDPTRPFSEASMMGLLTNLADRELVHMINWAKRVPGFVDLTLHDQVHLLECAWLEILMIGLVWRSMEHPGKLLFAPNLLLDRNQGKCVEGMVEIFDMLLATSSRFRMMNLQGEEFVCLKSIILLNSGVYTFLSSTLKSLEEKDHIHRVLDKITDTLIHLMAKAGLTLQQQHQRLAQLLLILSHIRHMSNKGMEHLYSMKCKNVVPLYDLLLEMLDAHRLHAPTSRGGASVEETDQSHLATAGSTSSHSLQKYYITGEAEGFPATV", "details": "previously reported; cited from earlier work"}}}
{"smiles": "C[C@]12CC[C@@H]3c4ccc(O)cc4CC[C@H]3[C@@H]1C[C@@H](I)[C@@H]2O", "note": "[16α-iodoestradiol]", "values": [{"measurement": "binding to ERβ", "setting": "ERβ", "value": "binds only poorly"}, {"measurement": "binding to ERα", "setting": "classical ER, ERα", "value": "binds with high affinity"}]}
